Where two headings read alike, the source gives them in different places.
System: T1, Glucose-6-phosphate dehydrogenase (G6PDH)
T1 construct: gene G6PD; native enzyme in crude hepatopancreas extract of aerobic control animals, not purified; mixture of low- and high-phosphate forms
Assay: NADPH production at […] nm, microplate reader
Format: biochemical, Faxonius virilis
Conditions: untreated extract of aerobic control animals, 50 mM imidazole, pH 7.0, 22 °C, read-out: Control K m

Compound | Km (NADP+ constant) [µM] | Km (G6P constant) [µM]
O=P(O)(O)OC[C@H]1OC(O)[C@H](O)[C@@H](O)[C@@H]1O (some centres unmarked) [G6P] | 130 ± 16 | 
NC(=O)c1ccc[n+]([C@@H]2O[C@H](COP(=O)(O)OP(=O)(O)OC[C@H]3O[C@@H](n4cnc5c(N)ncnc54)[C@H](OP(=O)(O)O)[C@@H]3O)[C@@H](O)[C@H]2O)c1 [NADP^+] |  | 150 ± 8

From paper PMC3195688, “Glucose-6-Phosphate Dehydrogenase Regulation in Anoxia Tolerance of the Freshwater Crayfish Orconectes virilis” (Enzyme Research, 2011)
